Patent US10111902B2, “Polymers for reversing heparin-based anticoagulation” (University of British Columbia, priority 2011, dated 2018)

How the values were obtained:
UFH = assay: Thromboelastography (TEG), neutralization of UFH in whole blood; format: cell-based; details: human whole blood, UFH 0.5 U/ml, re-calcified at 37° C
Description: This example examines thromboelastography in the presence of various heparin binders. Thromboelastography (TEG) provides an in vitro method for monitoring of the evolution of the viscoelastic properties and coagulation kinetics of blood as clotting proceeds. The principle components of the TEG are a cylindrical cup and a bob suspended in the cup from a weak torsion wire. The warmed cup oscillates over a 10 second period through an angle of 4° 45′. Blood is added and a torque is transmitted to the bob as the gel forms. The rate of clot formation, the strength of the clot, and the rate of clot lysis are reflected in the shape traced out by the maxima in the bob oscillation as a function of time (the trace of the TEG). […]
(§1) To carry out TEG experiments, citrate anti-coagulated whole blood with heparin or heparin derivatives added are incubated with buffered HBSPCM polymers (sodium citrate or saline) for 1 minute before recalcification at 37° C. Clot formation kinetics are monitored in a TEG machine (350 μl whole blood+35 μl polymer or control solution) at 37° C.
The coagulation time (FIG. 7A) and maximum clot strength, or maximum amplitude (MA) (FIG. 7B) are shown. Citrated whole blood was added to UFH or Tinzaparin (0.5 U/ml) and re-calcified at 37° C. in a TEG cup and monitored using a TEG machine. […]

LMWH Tinzaparin = assay: Thromboelastography (TEG), neutralization of LMWH Tinzaparin in whole blood; format: cell-based; details: human whole blood; for clot strength (maximum amplitude, MA) with Tinzaparin: antidote at higher concentration (0.25 mg/ml)
Description: (§2) This example examines thromboelastography in the presence of various heparin binders. Thromboelastography (TEG) provides an in vitro method for monitoring of the evolution of the viscoelastic properties and coagulation kinetics of blood as clotting proceeds. The principle components of the TEG are a cylindrical cup and a bob suspended in the cup from a weak torsion wire. The warmed cup oscillates over a 10 second period through an angle of 4° 45′. Blood is added and a torque is transmitted to the bob as the gel forms. The rate of clot formation, the strength of the clot, and the rate of clot lysis are reflected in the shape traced out by the maxima in the bob oscillation as a function of time (the trace of the TEG). The clot's physical properties, i.e. rate of clot formation, clot strength, and stability are dependent on the interaction of fibrinogen, platelets, and plasma proteins. TEG studies yield the cumulative effect of several components of coagulation (global homeostasis) as a function of time.
as §1
The coagulation time (FIG. 7A) and maximum clot strength, or maximum amplitude (MA) (FIG. 7B) are shown. Citrated whole blood was added to UFH or Tinzaparin (0.5 U/ml) and re-calcified at 37° C. in a TEG cup and monitored using a TEG machine. JNK-1 polymers or protamine at different concentrations were used as neutralizing agents.

Enoxaparin = assay: Thromboelastography (TEG), neutralization of Enoxaparin in whole blood; format: cell-based; details: human whole blood; JNK-5 and JNK-6 at 0.1 mg/ml
Description: as §2
(§3) To carry out TEG experiments, citrate anti-coagulated whole blood with heparin or heparin derivatives added are incubated with buffered HBSPCM polymers (sodium citrate or saline) for 1 minute before recalcification at 37° C. Clot formation kinetics are monitored in a TEG machine (350 μl whole blood+35 μl polymer or control solution) at 37° C. […]

complement system = assay: Complement activation, CH50 sheep erythrocyte lysis assay; format: biochemical; details: serum, 0.05 and 0.5 mg/mL, 1 h, 37° C
Description: The level of complement activation was measured by a CH50 sheep erythrocyte lysis assay. Ten microliter of each of the 0.5 and 5 mg/mL polymers or protamine was mixed with 90 μL of serum for 1 h at 37° C. The final concentration of polymer/protamine to serum was 0.05 and 0.5 mg/mL. One mg/mL heat-activated human IgG and 5 mM EDTA, after mixing with serum, were the positive and negative controls, respectively, for the study. 60 μL of post-incubation serum/polymer or protamine mixture was diluted by 120 μL of GVB^2+ (CompTech). Seventy-five microliter of GVB^2+ diluted serum/polymer or protamine mixture was incubated for 1 h at 37° C. with 75 μL of Ab-sensitized sheep erythrocyte (CompTech). The reaction was stopped by addition of 300 μL cold GVB-EDTA to each sample. The samples were centrifuged and the optical density of supernatant was measured at 540 nm. One hundred percent lysis of the sheep erythrocyte was done by dH2O. The percentage of complement activation was calculated by 100-% lysis of sheep erythrocytes.

platelets = assay: Platelet activation of 23 kDa HBSPCM polymers (CD62-PE, flow cytometry); format: cell-based; details: PRP, 0.5 mg/mL, 1 h, 37° C
Description: The level of platelet activation was quantified by flow cytometry. Ninety microliter of PRP was incubated at 37° C. with 10 μL of 5 mg/mL of polymer or protamine (final concentration 0.5 mg/mL). After 1 h, aliquots of the incubation mixtures were removed for assessment of the platelet activation state. Five microliter of post-incubation platelet/polymer or protamine mixture, diluted in HEPES buffer, was incubated for 20 minutes in the dark with 5 μL of monoclonal anti-CD62-PE (Immunotech). The samples were then stopped with 0.5 mL of phosphate-buffered saline solution. The level of platelet activation was analyzed in a BD FACSCanto II flow cytometer (Becton Dickinson) by gating platelets specific events based on their FITC-CD42 fluorescence and light scattering profile. Activation of platelets was expressed as the percentage of platelet activation marker CD62-PE fluorescence detected in the 10,000 total events counted. Duplicate measurements were done, the mean of which was reported. Controls were done for the flow cytometric analysis. One U/ml of bovine thrombin (Sigma) was used as a positive control, and PE conjugated goat anti-mouse IgG polyclonal antibodies (Immunotech) was used as the non-specific binding control.

blood coagulation [1] = assay: Blood coagulation: PT and APTT in platelet poor plasma; format: biochemical, human; details: FIG. 15, compared to saline
Description: The present example examines blood coagulation in the presence of a heparin binding polymer. JNK-1 polymers were tested for blood compatibility using the activated partial thromboplastin time (APTT) and the prothrombin time (PT) in fresh human plasma. PT can be used to evaluate the extrinsic and common coagulation pathway and the results are expressed in seconds required for a fibrin clot to form after tissue thromboplastin (innovin) has been added to the blood sample. APTT is used to evaluate the intrinsic and common coagulation pathway. The results are expressed in seconds required for a fibrin clot to form in the plasma sample after a partial thromboplastin reagent (actin) and calcium chloride have been added to the sample. Blood was mixed with a measured amount of citrate and the plasma was obtained by centrifugation, using methods known in the art.
A final JNK-1 concentration of 10 mg/ml is used at in a 9:1 dilution of plasma at 37° C. Control experiments were done adding identical volumes of saline solution. JNK-1 polymer solutions were incubated with platelet poor plasma for 5 minutes at 37° C. before adding PT and APTT reagents.
Blood coagulation is measured using APTT.

Tinzaparin = assay: LMWH Tinzaparin neutralization in living rats (anti-Xa assay); format: in vivo, rat; details: 25 U Tinzaparin, then about 1 mg polymer or protamine (3 mg/kg)
Description: The present example examines heparin binding polymer effectiveness in vivo. HBSPCM polymers were tested for their ability to neutralize UFH and LMWH in living rats. Rats were first injected with heparin or heparin derivative, and then injected with the JNK-1 polymers, protamine or saline control to neutralize the previously administered heparin or heparin derivative. Neutralization was measured by detecting the percentage of factor Xa using an anti-Xa assay as a measure of anticoagulant activity.
In addition, Enoxaparin alone and JNK-1 polymers+Enoxaparin were compared (FIG. 8C). An anti-Xa assay was used to measure heparin activity in rat blood. In this pilot study, rats were injected with 25 U of UFH, Tinzaparin or Enoxaparin (0 minutes). Blood was collected after UFH, Tinzaparin, or Enoxaparin infusion (5 minutes). Approximately 1 mg of JNK-1 polymers or protamine (dose was 3 mg/kg) was injected at 7 minutes and the blood was collected at 12 minutes after UFH/Tinzaparin/Enoxaparin infusion (5 minutes after JNK-1 infusion), and 17 minutes (10 minutes after JNK-1 polymer infusion). For subjects receiving Enoxaparin, blood was collected at additional time points (25 minutes and 30 minutes). Blood samples collected before the UFH, Enoxaparin or Tinzaparin infusion were used as a base control. […] Each data point shown reflects an average and standard deviation from five rats. […]

blood coagulation [2] = assay: Blood compatibility by thromboelastograph (TEG); format: cell-based; details: polymer concentration 0.5 mg/ml
Description: as §2, §3

Substance: protamine
- UFH neutralization (TEG: coagulation time, clot strength) (UFH): not effective at neutralizing UFH or LMWH Tinzaparin and Enoxaparin in terms of the time to clot formation
- LMWH Tinzaparin neutralization (TEG: coagulation time, clot strength) (LMWH Tinzaparin; Tinzaparin 0.5 U/ml, re-calcified at 37° C): not effective at neutralizing UFH or LMWH Tinzaparin and Enoxaparin in terms of the time to clot formation
- clot strength (maximum amplitude, MA) with Tinzaparin (LMWH Tinzaparin): did not form a stable clot
- clot strength (maximum amplitude, MA) with Tinzaparin (LMWH Tinzaparin; listed as protamine): not at all at a high dose
- Enoxaparin neutralization (TEG) (Enoxaparin): not effective at neutralizing UFH or LMWH Tinzaparin and Enoxaparin in terms of the time to clot formation
- complement activation (CH50) (complement system): significant complement activation
- platelet activation (CD62-PE) (platelets): significant levels of platelet activation
- blood coagulation (APTT biocompatibility) (blood coagulation [1]): different blood coagulation profile
- neutralization of anticoagulant activity of Tinzaparin in rats (anti-Xa) (Tinzaparin): could not completely neutralize the LMWH
- coagulation time (R) and kinetics parameter (K), TEG (blood coagulation [2]): different blood coagulation profile
- Blood compatibility at 1 mg/ml (blood): poor [3]
